The test system of data set [1] is Sprague-Dawley rats. The data set is described as follows: Vogel conflict test. Type of data set: in vivo. Particulars: rat.
Data set [2] can be described thus: Plasma and brain exposure after dosing in rats. Particulars: rat; for Plasma exposure in words: i.v. (1 mg/kg) or p.o. (10 mg/kg); for Total Plasma Concentration, 15 min / Total Plasma Concentration, 30 min / Total Plasma Concentration, 60 min / Brain concentration of dosed ligand, 120 min / Total Plasma Concentration, 120 min / Brain concentration of dosed ligand, 60 min: p.o. 10 mg/kg; for Total Plasma Concentration, 15 min / Total Plasma Concentration, 30 min / Total Plasma Concentration, 60 min / Brain concentration of dosed ligand, 120 min / Total Plasma Concentration, 120 min: BQL: quantifiable limit < 12.2 nM. Type of data set: in vivo, Sprague-Dawley rats.

Data set [3] has as its system HEK293T cells. The data set is described as follows: Cytotoxicity, CellTiter-Glo. Particulars: for Cytotoxicity in words: 18 h, 100 μM; for Cytotoxicity (18 h) LD50: CellTiter-Glo, n = 4. Type of data set: cell-based, human. For orientation: Cellular ATP, detected with luciferase, serves as a proxy for viable cell number.
In data set [4] the test system is NIH Swiss Webster mice. The data set is described as follows: Rotarod assay. Type of data set: in vivo. Particulars: 4 r.p.m., 2 min; for Rotarod motorsensory behavior, 10 mg/kg: i.p. 10 mg/kg.
Data set [5] relates to NIH Swiss Webster mice. The data set is described as follows: Marble burying assay. Type of data set: in vivo.
The nature of data set [6]: Solubility by light scattering. Type of data set: physicochemical. The note with it: pH=7, by light scattering.
Data set [7] can be described thus: Rat pharmacokinetics i.v. and i.p., plasma and brain concentrations. Type of data set: in vivo, Sprague-Dawley rats.

Several values for one entry are separate records, joined by “and”; a condition that tells them apart may be missing. Equal entries are not always repeated.

With `CNC1=Nc2ccc(Cl)cc2C(c2ccccc2)=[N+]([O-])C1` [CDAP, chlordiazepoxide, reference compound], the “Vogel conflict, response rate in the unpunished session, 20 mg/kg” value in data set [1] (20 mg/kg i.p.) is reported as “Neither”. For the same compound, the “Vogel conflict, punished response over control, 20 mg/kg” value in data set [1] (20 mg/kg i.p., P < 0.05) came to 330%.
On to `C#Cc1ccc2c(c1)C(c1ccccn1)=NCc1c(C(=O)OCC)ncn1-2` [compound 2], for which the “Vogel conflict, difference from vehicle in words, 30 mg/kg” value in data set [1] (30 mg/kg i.p.) is on record as “no discernable difference”. In data set [2], the “Plasma exposure in words” value is “poor”; the “Total Plasma Concentration, 15 min” value was “BQL ^c”; the “Total Plasma Concentration, 30 min” value is reported as “BQL ^c”; the “Total Plasma Concentration, 60 min” value is listed as “BQL ^c”. Further, in data set [2], the “Brain concentration of dosed ligand, 120 min” value (shortened to “Brain concentration … 120 min”) is “(120) BQL ^c” and the “Total Plasma Concentration, 120 min” value is “BQL ^c”. Besides, the Cytotoxicity in words entry in data set [3] is recorded as “non-toxic”.
In the case of `C#Cc1ccc2c(c1)C(c1ccccn1)=NCc1c(C(=O)O)ncn1-2` [compound 4], in data set [2], the “Brain concentration … 120 min” value is given as “(120) BQL ^c”.
Regarding `[2H]C([2H])(C)OC(=O)c1ncn2c1CN=C(c1ccccn1)c1cc(C#C)ccc1-2` [compound 5], in data set [2], the “Plasma exposure in words” value is given as “poor”; the “Total Plasma Concentration, 15 min” value was “BQL ^c”; the “Total Plasma Concentration, 30 min” value is reported as “BQL ^c”; the “Total Plasma Concentration, 60 min” value is “BQL ^c”. Moreover, in data set [2], the “Brain concentration … 120 min” value is “(120) BQL ^c” and the “Total Plasma Concentration, 120 min” value is “BQL ^c”.
For `C#Cc1ccc2c(c1)C(c1ccccn1)=NCc1c(-c3nc(C)no3)ncn1-2` [compound 6], the “Rotarod motorsensory behavior, 10 mg/kg” value in data set [4] is recorded as “very minor impairment”. Moreover, in data set [3], the Cytotoxicity in words result is listed as “non-toxic”.
On to `C#Cc1ccc2c(c1)C(c1ccccn1)=NCc1c(-c3nc(CC)no3)ncn1-2` [compound 7], for which, in data set [2], the “Brain concentration of dosed ligand, 60 min” value is recorded as “(60) 3090 nM”. Moreover, in data set [3], the Cytotoxicity in words entry is “non-toxic”. Also, the “Marble burying vs. vehicle, 10 mg/kg” value in data set [5] (i.p. 10 mg/kg, 30 min prior to testing) was “significant reduction”. Moreover, in data set [5] (i.p. 30 mg/kg), the “Sedation-like behavior observed in marble burying” value was “weak signs of sedation”.
Regarding `C#Cc1ccc2c(c1)C(c1ccccc1)=NCc1c(-c3cnco3)ncn1-2` [compound 8], the “Cytotoxicity (18 h) LD50” value in data set [3] is 66.8 µM and 66.8 ± 9 µM.
Regarding `C#Cc1ccc2c(c1)C(c1ccccn1)=NCc1c(-c3cnco3)ncn1-2` [compound 9, 5-(8-Ethynyl-6-(pyridin-2-yl)-4H-benzo[f]imidazo[1,5-a][1,4]diazepin-3-yl)oxazole], the “Vogel conflict, punished response vs. control, 3 mg/kg” value in data set [1] (3 mg/kg i.p., 30 min pretreatment) is on record as “no increase in response”. Also, the “Vogel conflict, increase of punished response rate over control, 30 mg/kg” value in data set [1] (30 mg/kg i.p., 30 min pretreatment) is on record as “about 220%”. In addition, the solubility entry in data set [6] is reported as “good”. In addition, the “time of Cmax” value in data set [7] (10 mg/kg i.p.) was 2.0 h. Also, the “Unbound Concentration (Cu), Brain” value in data set [7] (4 hours after 10 mg/kg i.p., free fraction x total concentration) amounted to 363 nM. For the same compound, the “Brain concentration of dosed ligand, 60 min” value in data set [2] was “(60) 3640 nM”. Besides, in data set [4] (i.p. 30 mg/kg), the “Rotarod failures, 30 mg/kg” value is “zero failures” and the “Rotarod performance / ataxia, 30 mg/kg” value was “did not significantly alter rotarod performance compared to vehicle”. In addition, in data set [3], the Cytotoxicity in words entry is “non-toxic”.
As to `C#Cc1ccc2c(c1)C(c1ccccc1F)=NCc1c(-c3cnco3)ncn1-2` [compound 10], in data set [4], the “Rotarod motorsensory behavior, 10 mg/kg” value is on record as “very minor impairment”. For the same compound, the “Cytotoxicity (18 h) LD50” value in data set [3] is 61.5 µM and 61.5 ± 10 µM.
